Residues, ends and D or L forms follow the SMILES beside them. *: point of attachment. Cbz = O=C(OCc1ccccc1)*
What was measured:
A549 = assay: Cytotoxicity against human A549 cells after 48 hrs by MTT assay; format: functional, cell-based; conditions: A549, 48 h
RAW264.7 [1] = assay: Cytotoxicity against mouse RAW264.7 cells after 18 hrs by MTS assay; format: cell-based; conditions: raw264.7, 18 h
RAW264.7 [2] = assay: Antiinflammatory activity in mouse RAW264.7 cells assessed as inhibition of LPS-induced nitric oxide production after 18 hrs by Griess method; format: functional, cell-based; conditions: RAW264.7, 18 h
MCF7 = assay: Cytotoxicity against human MCF7 cells after 48 hrs by MTT assay; format: functional, cell-based; conditions: MCF7, 48 h
SMMC-7721 = assay: Cytotoxicity against human SMMC7721 cells after 48 hrs by MTT assay; format: functional, cell-based; conditions: SMMC-7721, 48 h
SW480 = assay: Cytotoxicity against human SW480 cells after 48 hrs by MTT assay; format: functional, cell-based; conditions: SW480, 48 h
HL-60 = assay: Cytotoxicity against human HL60 cells after 48 hrs by MTT assay; format: functional, cell-based; conditions: HL-60, 48 h

SMILES	IC50 (RAW264.7 [2])	IC50 (A549)	Activity (RAW264.7 [1])	IC50 (MCF7)	IC50 (SMMC-7721)	IC50 (SW480)	IC50 (HL-60)
C[C@@H]1[C@@H]2C[C@H](O)[C@H]3[C@]45CCCC(C)(C)[C@H]4[C@H](O)[C@](O)(OC5)[C@@]3([C@@H]1O)[C@@H]2O	> 25 µM	> 10 µM	Non-toxic	> 10 µM	> 10 µM	> 10 µM	> 10 µM
C[C@@H]1[C@@H]2CC[C@H]3[C@]45CCCC(C)(C)[C@H]4[C@H](O)[C@](O)(OC5=O)[C@@]3([C@@H]1O)[C@@H]2O	> 25 µM	> 10 µM	Non-toxic	> 10 µM	> 10 µM	> 10 µM	> 10 µM
C=C1[C@@H](O)[C@@]23C(=CC[C@@H]1[C@H]2O)[C@@]12CO[C@@]3(O)[C@@H](O)[C@@H]1C(C)(C)CC[C@@H]2O	> 25 µM	> 10 µM	Non-toxic	> 10 µM	> 10 µM	> 10 µM	> 10 µM
C=C1C(=O)[C@]23[C@H](O)[C@H]1C[C@@H](O)[C@H]2[C@]12CCCC(C)(C)[C@H]1[C@H](O)[C@@]3(O)OC2	1.7 µM	8.6 µM	Non-toxic	5.1 µM	4.5 µM	2.5 µM	3.5 µM
C=C1[C@@H](O)[C@]23[C@H](O)[C@H]1CC[C@H]2[C@@]12C(=O)O[C@]3(O)[C@@H](O)[C@@H]1C(C)(C)CC[C@@H]2O	6.1 µM	–	Non-toxic	–	–	–	–
C=C1C(=O)[C@]23[C@H](O)[C@H]1CC[C@H]2[C@@]12[C@@H](OC)O[C@]3(O)[C@@H](O)[C@@H]1C(C)(C)CC[C@@H]2O	> 25 µM	> 10 µM	Non-toxic	> 10 µM	> 10 µM	9.4 µM	7 µM
C=C1[C@@H](O)[C@]23[C@H](O)[C@H]1CC[C@H]2[C@@]12C(OC)O[C@]3(O)[C@@H](O)[C@@H]1C(C)(C)CC[C@@H]2O (stereo partly specified)	> 25 µM	> 10 µM	Non-toxic	> 10 µM	> 10 µM	> 10 µM	5.3 µM
C=C1[C@H]2CC3=C4[C@](C2)(C(=O)O[C@H]2CCC(C)(C)[C@@H]([C@@H](O)O3)[C@]42C=O)[C@@H]1OC(C)=O	> 25 µM	> 10 µM	Non-toxic	> 10 µM	> 10 µM	> 10 µM	> 10 µM
C=C1[C@H]2CC[C@@H]3[C@](C2)(C(=O)O[C@@H]2CCC(C)(C)[C@H]4[C@H](O)O[C@@H](OC)[C@@]432)[C@@H]1OC(C)=O	> 25 µM	> 10 µM	Non-toxic	> 10 µM	> 10 µM	> 10 µM	> 10 µM
C=C1C(=O)[C@]23[C@H](OC(C)=O)[C@H]1C[C@H](OC(C)=O)[C@H]2[C@]12CCCC(C)(C)[C@H]1[C@H](O)[C@]3(O)OC2	6.3 µM	> 10 µM	Non-toxic	> 10 µM	> 10 µM	3.2 µM	4.6 µM
C=C1C(=O)[C@]23[C@H](O)[C@H]1CC[C@H]2[C@@]12[C@H](OCC)O[C@@]3(O)[C@@H](O)[C@@H]1C(C)(C)CC[C@@H]2O (relative stereo)	3.9 µM	> 10 µM	Non-toxic	8.4 µM	> 10 µM	7.8 µM	5.9 µM
C=C1C(=O)[C@]23[C@H](O)[C@H]1CC[C@H]2[C@@]12CO[C@]3(O)[C@@H](O)[C@@H]1C(C)(C)CC[C@@H]2O [ORIDONIN]	5.2 µM	> 10 µM	Non-toxic	> 10 µM	> 10 µM	> 10 µM	2.5 µM
CC(=O)O[C@H]1C(=O)[C@@]2(C)[C@H]([C@H](OC(=O)c3ccccc3)[C@]3(O)C[C@H](OC(=O)[C@H](O)[C@@H](NC(=O)c4ccccc4)c4ccccc4)C(C)=C1C3(C)C)[C@]1(OC(C)=O)CO[C@@H]1C[C@@H]2O [PACLITAXEL]	–	–	–	< 0.008 µM	< 0.008 µM	0.04 µM	< 0.008 µM

Second part, led by results:

IC50 (RAW264.7 [2])	SMILES	IC50 (A549)	Activity (RAW264.7 [1])	IC50 (MCF7)	IC50 (SMMC-7721)	IC50 (SW480)	IC50 (HL-60)
2 µM	C=C1C(=O)[C@]23C[C@H]1CC=C2[C@@]12CO[C@@]3(O)[C@@H](O)[C@@H]1C(C)(C)CC[C@@H]2O	4.6 µM	Non-toxic	3.3 µM	3.5 µM	3.4 µM	8.8 µM
2 µM	C=C1[C@H]2C[C@@H]3OC(=O)[C@@H]4C(C)(C)CC[C@@H]5OC(=O)[C@](C2)([C@@H]1O)[C@@H]3[C@]54C=O	> 10 µM	Non-toxic	> 10 µM	> 10 µM	> 10 µM	6.1 µM
3.4 µM	C=C1C(=O)[C@]23C[C@H]1CC[C@H]2[C@@]12CO[C@]3(O)[C@@H](O)[C@@H]1C(C)(C)CC[C@@H]2O	5.6 µM	Non-toxic	4.2 µM	5.9 µM	3.2 µM	7.9 µM
1.1 µM	C=C1C(=O)[C@@]23[C@@H]4OC(C)(C)O[C@@]25OC[C@]2(CCCC(C)(C)[C@H]2[C@@H]5O)[C@@H]3[C@@H](O)C[C@@H]14	3.4 µM	Non-toxic	1.8 µM	2.6 µM	2 µM	1.5 µM
1.5 µM	C=C1C(=O)[C@]23[C@H](O)[C@H]1CC[C@H]2[C@@]12[C@@H](OCCCC)O[C@@]3(O)[C@@H](O)[C@@H]1C(C)(C)CC[C@@H]2O (mixture of isomers)	3.9 µM	Non-toxic	2.6 µM	3.2 µM	2.8 µM	1.2 µM
1.5 µM	C=C1[C@H]2C[C@H](O)[C@@H]3[C@](C2)(C(=O)O[C@@H]2CCC(C)(C)[C@H]4[C@H](O)O[C@H](OC)[C@@]432)[C@@H]1OC(C)=O (relative stereo)	> 10 µM	Non-toxic	3.5 µM	> 10 µM	3.3 µM	4.3 µM
1.9 µM	C=C1C(=O)[C@]23[C@H](O)[C@H]1CC[C@H]2[C@@]12CO[C@@]3(O)[C@@H](O)[C@@H]1C(C)(C)CC[C@@H]2OC(C)=O [LASIOKAURIN]	6.7 µM	Non-toxic	2.5 µM	2.7 µM	2.4 µM	1.8 µM
0.1 µM	CC(C)C[C@@H](C=O)NC(=O)[C@H](CC(C)C)NC(=O)[C@H](CC(C)C)NC(=O)OCc1ccccc1 [MG-132] (Cbz-Leu-Leu-Leu-aldehyde)	–	Non-toxic	–	–	–	–
2.3 µM	C=C1C(=O)[C@]23[C@H](O)[C@H]1CC[C@H]2[C@@]12C(OC)O[C@@]3(O)[C@@H](O)[C@@H]1C(C)(C)CC[C@H]2O (stereo partly specified) [RABDOTERNIN E]	> 10 µM	Non-toxic	> 10 µM	> 10 µM	4.1 µM	2.6 µM

Source: ChEMBL document CHEMBL2406996, “Bioactive ent-kaurane diterpenoids from Isodon rosthornii” (J Nat Prod, 2013)
